Results as given in patent US8173697B2, “Alkoxyalkyl-substituted cyclic keto-enols” (Bayer CropScience AG, priority 2006, dated 2012).

What was measured:
Format in all cases: in vivo
Myzus persicae = Myzus persicae test, activity boost through ammonium/phosphonium salts and penetration promoters (Example 11)
Method: For application with ammonium salts or phosphonium salts and penetration promoters (rapeseed oil methyl ester 500 EW) these are in each case added in a concentration of 1000 ppm to the spray liquor.
(§1) After the desired time the destruction in % is determined.

Aphis gossypii = Aphis gossypii test (Example 12); settings: for Destruction (%) after 6 d: no additive
Method: For application with ammonium salts or phosphonium salts and penetration promoters (rapeseed oil methyl ester 500 EW) these are in each case added in a concentration of 1000 ppm a.i. to the spray liquor.
as §1

Maize - Arsenal = experiment: Greenhouse container trials with maize, pre-emergence, with and without safener; settings: 28 days after application
From the text: Seeds of monocotyledonous and dicotyledonous weed plants and crop plants are placed in sandy loam soil in wood fibre pots or in plastic pots and are covered with earth. The test compounds, formulated as wettable powders (WP) or liquids (EC), are sprayed onto the soil surface in various dosages, with a water application rate of 300 l/ha (converted). The pots are then placed in a greenhouse under good growth conditions, and also, during the vegetation period, are placed outdoors, outside of the greenhouse, so that the plants are able to germinate and develop. 3 to 4 weeks after the trial plants have been treated, the effect of the products is rated visually in comparison to untreated controls (herbicidal effect in percent: 100% effect=plants have died, 0% effect=like control plants).
(§2) If the testing is also to look at whether safeners can improve the tolerance of the crop plants for test substances, the following options are used for the application of the safener: • seeds of the crop plants are dressed with the safener substance prior to sowing (the amount of safener is stated as a percentage, based on the seed weight) • pots containing the crop plants are sprayed with the safener, with a defined application rate per hectare, prior to application of the test substances • the safener is applied together with the test substance in the form of a tank mix (the amount of safener is reported in g/ha or as a proportion relative to the herbicide).
(§3) By comparing the effect of test substances on crop plants which have been treated with safener and without safener it is possible to assess the effect of the safener substance.

Spring wheat = experiment: Greenhouse container trials with cereals, post-emergence, with and without safener; settings: 10 days after application
Method: (§4) Seeds of monocotyledonous and dicotyledonous weed plants and crop plants are placed in sandy loam soil in wood fibre pots or in plastic pots and are covered with earth and cultivated in a greenhouse and also, during the vegetation period, outdoors, outside of the greenhouse, under good growth conditions. 2 to 3 weeks after sowing, the trial plants are treated at the one- to three-leaf stage. The test compounds, formulated as wettable powders (WP) or liquids (EC), are sprayed onto the plants and the soil surface in various dosages, with a water application rate of 300 l/ha (converted) and with addition of wetting agent (0.2% to 0.3%). […]
as §2, with “weight) • crop plants” for “weight) • pots containing the crop plants”, “test substances (typically 1 day before the test substances are applied) • the” for “test substances • the”
as §3

Spring barley = experiment: as above
Method: as §4
as §2, with “weight) • crop plants” for “weight) • pots containing the crop plants”, “test substances (typically 1 day before the test substances are applied) • the” for “test substances • the”
as §3

[1] = 20 ppm, no additive, bell pepper plants

**Q.** For COCC1(C)NC(=O)C(c2cc(-c3ccc(Cl)cc3)ccc2C)=C1O (stereo not shown) [I-a-1], which “Destruction (%) after 6 d” value (Myzus persicae; 4 ppm, +AS 1000 ppm) is on record?
**A.** The value was 0%.

**Q.** And the “Destruction (%) after 6 d” value (Myzus persicae; 4 ppm, +AS +RME 1000 ppm each)?
**A.** The value was 75%.

**Q.** And the “Destruction (%) after 6 d” value (Myzus persicae; 4 ppm, +RME 1000 pm)?
**A.** The value was 35%.

**Q.** What about the “Destruction (%) after 6 d” value (Myzus persicae; 4 ppm, no additive, bell pepper plants) of the same compound?
**A.** Its value is 0%.

**Q.** What about the “Destruction (%) after 6 d” value (Myzus persicae; 20 ppm, +AS 1000 ppm) of the same compound?
**A.** The value was 65%.

**Q.** And the “Destruction (%) after 6 d” value (Myzus persicae; 20 ppm, +AS +RME 1000 ppm each)?
**A.** Its value is 99%.

**Q.** And the “Destruction (%) after 6 d” value (Myzus persicae; 20 ppm, +RME 1000 pm)?
**A.** Its value is 98%.

**Q.** What about the “Destruction (%) after 6 d” value (Myzus persicae; [1]) of the same compound?
**A.** Its value is 0%.

**Q.** What about the “Destruction (%) after 6 d +AS 1000 ppm” value (Aphis gossypii; 20 ppm active compound) of the same compound?
**A.** The value was 20%.

**Q.** What about the “Destruction (%) after 6 d +AS +RME 1000 ppm each” value (Aphis gossypii; 20 ppm active compound) of the same compound?
**A.** Its value is 85%.

**Q.** And the “Destruction (%) after 6 d +RME 1000 pm” value (Aphis gossypii; 20 ppm active compound)?
**A.** Its value is 5%.

**Q.** And the “Destruction (%) after 6 d” value (Aphis gossypii; 20 ppm active compound)?
**A.** The value was 5%.

**Q.** What about the “Destruction (%) after 6 d +AS 1000 ppm” value (Aphis gossypii; 100 ppm active compound) of the same compound?
**A.** The value was 90%.

**Q.** And the “Destruction (%) after 6 d +AS +RME 1000 ppm each” value (Aphis gossypii; 100 ppm active compound)?
**A.** Its value is 90%.

**Q.** And the “Destruction (%) after 6 d +RME 1000 pm” value (Aphis gossypii; 100 ppm active compound)?
**A.** Its value is 90%.

**Q.** And the “Destruction (%) after 6 d” value (Aphis gossypii; 100 ppm active compound)?
**A.** The value was 60%.

**Q.** COCC1(C)NC(=O)C(c2c(C)ccc(-c3ccc(Cl)cc3)c2C)=C1O (stereo not shown) [I-a-7] was tested. Which “Destruction (%) after 6 d +AS 1000 ppm” value (Aphis gossypii; 20 ppm active compound) did it give?
**A.** The value was 10%.

**Q.** And the “Destruction (%) after 6 d +AS +RME 1000 ppm each” value (Aphis gossypii; 20 ppm active compound)?
**A.** The value was 90%.

**Q.** And the “Destruction (%) after 6 d +RME 1000 pm” value (Aphis gossypii; 20 ppm active compound)?
**A.** The value was 70%.

**Q.** And the “Destruction (%) after 6 d” value (Aphis gossypii; 20 ppm active compound)?
**A.** Its value is 5%.

**Q.** Which results are given for COCC1(C)NC(=O)C(c2cc(-c3ccc(F)cc3)ccc2C)=C1O (stereo not shown) [I-a-12]?
**A.** Destruction (%) after 6 d (Myzus persicae; 20 ppm, +AS 1000 ppm): 0%; Destruction (%) after 6 d (Myzus persicae; 20 ppm, +AS +RME 1000 ppm each): 99%; Destruction (%) after 6 d (Myzus persicae; 20 ppm, +RME 1000 pm): 45%; Destruction (%) after 6 d (Myzus persicae; [1]): 10%; Destruction (%) after 6 d (Myzus persicae; 100 ppm, +AS 1000 ppm): 98%; Destruction (%) after 6 d (Myzus persicae; 100 ppm, +AS +RME 1000 ppm each): 99%; Destruction (%) after 6 d (Myzus persicae; 100 ppm, +RME 1000 pm): 99%; Destruction (%) after 6 d (Myzus persicae; 100 ppm, no additive, bell pepper plants): 85%

**Q.** What does the source list for CCc1cc(-c2ccc(Cl)cc2)cc(CC)c1C1=C(OC(=O)C(C)C)C(C)(COC)NC1=O (stereo not shown) [I-b-2]?
**A.** Maize - Arsenal observed (%) (Maize - Arsenal; 25 g a.i./ha): 40%; Maize - Arsenal observed (%) (Maize - Arsenal; 50 g a.i./ha): 50%

**Q.** What does the source list for CCc1cc(-c2ccc(C)cc2)cc(C)c1C1=C(OC(=O)C(C)C)C(C)(COC)NC1=O (stereo not shown) [I-b-5]?
**A.** Spring wheat observed (%) (Spring wheat; 50 g a.i./ha): 10%; Spring wheat observed (%) (Spring wheat; 100 g a.i./ha): 15%; Spring barley observed (%) (Spring barley; 25 g a.i./ha, 28 days after application): 10%; Spring barley observed (%) (Spring barley; 50 g a.i./ha, 10 days after application): 50%; Spring barley observed (%) (Spring barley; 100 g a.i./ha, 10 days after application): 65%; Spring barley observed (%) (Spring barley; 100 g a.i./ha, 28 days after application): 30%

**Q.** CCOC(=O)OC1=C(c2c(C)cc(-c3ccc(Cl)cc3)cc2CC)C(=O)NC1(C)COC (stereo not shown) [I-c-1] was tested. Which “Maize - Arsenal observed (%)” value (Maize - Arsenal; 50 g a.i./ha) did it give?
**A.** Its value is 55%.
